The assay relates to FLC-resistant Candida auris. Put plainly: Checkerboard (dose-response matrix) with fluconazole, FICI. In kind it is cell-based. The settings on record: fractional inhibitory concentration index for enhancement of FLC activity in FLC-resistant Candida auris; <0.5 strong synergy, 2 = no synergy. How it is done: Generally, the synergy is measured by determining the fractional inhibitory concentration (FIC) value of the combination. […] FIC values for both agents in a particular square/well are calculated in this way followed by determination of the FIC index (sum of the FICs of each agent in the particular square/well).
Compound potency was assessed alone by dose response assays or in combination with another compound by dose-response matrixes in 96-well plates, or 384-well, flat-bottom, microtiter plates (Corning) as previously described. Plates were incubated at 30° C. for the indicated time period. Growth was quantified by measuring OD600 and corrected for medium background. All strains were assessed in biological duplicate experiments with technical duplicates. Growth was normalized to untreated controls and plotted as a heat map using Java TreeView 1.1.6r4. For dose-response matrixes fractional inhibitory concentration index at 90% growth inhibition (FICI90) was calculated as previously described. The fluconazole Etest susceptibility assay was performed as previously described. Briefly, 200 μL of 5×10^6 cells/mL were plated on YPD agar (1%) plates with either with 50 μM azoffluxin or containing DMSO.

The structures appear in SMILES notation.

For `CC(C)C[C@@H](O)COc1cc2c(cc1C1(c3cc4c(cc3OC[C@H](O)CC(C)C)OCO4)C(=O)Nc3ccc(F)cc31)OCO2` [CMLD013622, 5-fluoro-3,3-bis(6-(((R)-2-hydroxy-4-methylpentyl)oxy)benzo[d][1,3]dioxol-5-yl)indolin-2-one], the FICI is recorded as 0.130.

On to `C=CC[C@@H](O)COc1cc2c(cc1C1(c3cc4c(cc3OC[C@H](O)CC=C)OCO4)C(=O)Nc3c(F)cccc31)OCO2` [CMLD012402, 7-fluoro-3,3-bis(6-(((R)-2-hydroxypent-4-en-1-yl)oxy)benzo[d][1,3]dioxol-5-yl)indolin-2-one], for which the FICI is listed as 0.113.

Consider `CC(C)C[C@@H](O)COc1cc2c(cc1C1(c3cc4c(cc3OC[C@H](O)CC(C)C)OCO4)C(=O)Nc3cc(F)ccc31)OCO2` [CMLD012393, 6-fluoro-3,3-bis(6-(((R)-2-hydroxy-4-methylpentyl)oxy)benzo[d][1,3]dioxol-5-yl)indolin-2-one], for which the FICI came out at 0.130.

As to `C=CCC[C@@H](O)COc1cc2c(cc1C1(c3cc4c(cc3OC[C@H](O)CCC=C)OCO4)C(=O)Nc3cc(Br)ccc31)OCO2` [CMLD012452, 6-bromo-3,3-bis(6-(((R)-2-hydroxyhex-5-en-1-yl)oxy)benzo[d][1,3]dioxol-5-yl)indolin-2-one], the FICI is 0.266.

For the compound `CCC[C@@H](O)COc1cc2c(cc1C1(c3cc4c(cc3OCC)OCO4)C(=O)Nc3c(F)cccc31)OCO2` (stereo partly drawn) [CMLD013655, 3-(6-ethoxy-2H-1,3-benzodioxol-5-yl)-7-fluoro-3-(6-(((2R)-2-hydroxypentyl)oxy)-2H-1,3-benzodioxol-5-yl)-2,3-dihydro-1H-indol-2-one], the FICI was found to be 0.113.

As for `CCC[C@@H](O)COc1cc2c(cc1C1(c3cc4c(cc3OC[C@H](O)CCC)OCO4)C(=O)Nc3cc(F)ccc31)OCO2` [CMLD012439, 6-fluoro-3,3-bis(6-(((R)-2-hydroxypentyl)oxy)benzo[d][1,3]dioxol-5-yl)indolin-2-one], the FICI is given as 0.130.

As for `C=CCC[C@@H](O)COc1cc2c(cc1C1(c3cc4c(cc3OC[C@H](O)CCC=C)OCO4)C(=O)Nc3cccc(Br)c31)OCO2` [CMLD012453, 4-bromo-3,3-bis(6-(((R)-2-hydroxyhex-5-en-1-yl)oxy)benzo[d][1,3]dioxol-5-yl)indolin-2-one], the FICI turned out to be 0.257.

For `CC(C)C[C@@H](O)COc1cc2c(cc1C1(c3cc4c(cc3OC[C@H](O)CC(C)C)OCO4)C(=O)Nc3c(F)cccc31)OCO2` [CMLD013623, 7-fluoro-3,3-bis(6-(((R)-2-hydroxy-4-methylpentyl)oxy)benzo[d][1,3]dioxol-5-yl)indolin-2-one], the FICI is recorded as 0.036.

As for `CC(C)(C)C[C@@H](O)COc1cc2c(cc1C1(c3cc4c(cc3OC[C@H](O)CC(C)(C)C)OCO4)C(=O)Nc3ccc(F)cc31)OCO2` [CMLD012444, 5-fluoro-3,3-bis(6-(((R)-2-hydroxy-4,4-dimethylpentyl)oxy)benzo[d][1,3]dioxol-5-yl)indolin-2-one], the FICI was 0.068.

Turning to `C=C(C)C[C@@H](O)COc1cc2c(cc1C1(c3cc4c(cc3OC[C@H](O)CC(=C)C)OCO4)C(=O)Nc3c(F)cccc31)OCO2` [CMLD012436, 7-fluoro-3,3-bis(6-(((R)-2-hydroxy-4-methylpent-4-en-1-yl)oxy)benzo[d][1,3]dioxol-5-yl)indolin-2-one], the FICI came out at 0.175.

With `CC(C)C[C@@H](O)COc1cc2c(cc1C1(c3cc4c(cc3OC[C@H](O)CC(C)C)OCCO4)C(=O)Nc3cc(F)ccc31)OCCO2` [CMLD013648, 6-fluoro-3,3-bis(7-(((2R)-2-hydroxy-4-methylpentyl)oxy)-2,3-dihydro-1,4-benzodioxin-6-yl)-2,3-dihydro-1H-indol-2-one], the FICI is recorded as 0.255.

In the case of `O=C1Nc2ccccc2C1(c1ccc(O)cc1)c1ccc(O)cc1` [Oxyphenisatin, oxyphenisatin, reference compound], the FICI is recorded as 2.

(Values after patent US11773086B2, “Fungal modulators” (TRUSTEES OF BOSTON UNIVERSITY, priority 2020, dated 2023).)
